From ChEMBL document CHEMBL1201862, “PubChem BioAssay data set” (2004)
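Where inhibition never reached the appropriate level, the endpoint shown equals the highest concentration tested. Otherwise, values were interpolated linearly from a five-concentration, 48-hour dose response in 96-well plates. GI50: concentration for 50% inhibition of growth.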 Active and inactive are the calls of the source. No stated cut-off is given here; in the data, active = GI50 up to about 1.1 µM and inactive = higher.

How the values were obtained:
Test in all cases: NCI anticancer screen, dose series, 48 h
OVCAR-8 = tested on: OVCAR-8
PC-3 = tested on: PC-3
SK-MEL-28 = tested on: SK-MEL-28
HL-60 = tested on: HL-60
SF-268 = tested on: SF-268
HCC 2998 = tested on: HCC 2998
SR = tested on: SR
RXF 393 = tested on: RXF 393
Hs-578T = tested on: Hs-578T
LOX IMVI = tested on: LOX IMVI
HCT-116 = tested on: HCT-116
M14 = tested on: M14
SF-539 = tested on: SF-539
CCRF-CEM = tested on: CCRF-CEM
SK-MEL-5 = tested on: SK-MEL-5
NCI/ADR-RES = tested on: NCI/ADR-RES
RPMI-8226 = tested on: RPMI-8226
Malme-3M = tested on: Malme-3M
SN12C = tested on: SN12C
T47D = tested on: T47D
MCF7 = tested on: MCF7
SNB-19 = tested on: SNB-19
EKVX = tested on: EKVX
CAKI-1 = tested on: CAKI-1
HOP-92 = tested on: HOP-92
MDA-N = tested on: MDA-N
NCI-H522 = tested on: NCI-H522
HT-29 = tested on: HT-29
MDA-MB-231 = tested on: MDA-MB-231
BT-549 = tested on: BT-549
UACC-62 = tested on: UACC-62
SK-MEL-2 = tested on: SK-MEL-2
786-0 = tested on: 786-0
HCT-15 = tested on: HCT-15
UO-31 = tested on: UO-31
SW-620 = tested on: SW-620
COLO 205 = tested on: COLO 205
OVCAR-5 = tested on: OVCAR-5
ACHN = tested on: ACHN
U-251 = tested on: U-251
A549 = tested on: A549
MOLT-4 = tested on: MOLT-4
MDA-MB-435 = tested on: MDA-MB-435
KM12 = tested on: KM12
K562 = tested on: K562
NCI-H226 = tested on: NCI-H226
TK-10 = tested on: TK-10
NCI-H460 = tested on: NCI-H460
NCI-H23 = tested on: NCI-H23
OVCAR-4 = tested on: OVCAR-4
HOP-62 = tested on: HOP-62
OVCAR-3 = tested on: OVCAR-3
SF-295 = tested on: SF-295
DU-145 = tested on: DU-145
UACC-257 = tested on: UACC-257
A498 = tested on: A498
SK-OV-3 = tested on: SK-OV-3
SNB-75 = tested on: SNB-75
IGROV-1 = tested on: IGROV-1

SMILES: O=[N+]([O-])c1ccc(Oc2c(Cl)cc(S(=O)(=O)N/C(=N\O)Nc3ccc(Cl)cc3)cc2Cl)c(Cl)c1
- GI50 (OVCAR-8): 22.8 µM (inactive)
- GI50 (PC-3): 13.3 µM (inactive)
- GI50 (SK-MEL-28): 21.6 µM (inactive)
- GI50 (HL-60): 26.2 µM (inactive)
- GI50 (SF-268): 13.6 µM (inactive)
- GI50 (HCC 2998): 16 µM (inactive)
- GI50 (SR): 10.7 µM (inactive)
- GI50 (RXF 393): 13.2 µM (inactive)
- GI50 (Hs-578T): 13.7 µM (inactive)
- GI50 (LOX IMVI): 17.1 µM (inactive)
- GI50 (HCT-116): 13.4 µM (inactive)
- GI50 (M14): 16.5 µM (inactive)
- GI50 (SF-539): 20.3 µM (inactive)
- GI50 (CCRF-CEM): 27.3 µM (inactive)
- GI50 (SK-MEL-5): 16.9 µM (inactive)
- GI50 (NCI/ADR-RES): 21.7 µM (inactive)
- GI50 (RPMI-8226): 15.2 µM (inactive)
- GI50 (Malme-3M): 14.6 µM (inactive)
- GI50 (SN12C): 14.3 µM (inactive)
- GI50 (T47D): 13.1 µM (inactive)
- GI50 (MCF7): 17.2 µM (inactive)
- GI50 (SNB-19): 16.9 µM (inactive)
- GI50 (EKVX): 14.8 µM (inactive)
- GI50 (CAKI-1): 14.8 µM (inactive)
- GI50 (HOP-92): 12.8 µM (inactive)
- GI50 (MDA-N): 15.6 µM (inactive)
- GI50 (NCI-H522): 13 µM (inactive)
- GI50 (HT-29): 16.9 µM (inactive)
- GI50 (MDA-MB-231): 17 µM (inactive)
- GI50 (BT-549): 14.8 µM (inactive)
- GI50 (UACC-62): 14.4 µM (inactive)
- GI50 (SK-MEL-2): 17 µM (inactive)
- GI50 (786-0): 14.7 µM (inactive)
- GI50 (HCT-15): 16.3 µM
- GI50 (UO-31): 13.7 µM (inactive)
- GI50 (SW-620): 24.9 µM (inactive)
- GI50 (COLO 205): 18.8 µM (inactive)
- GI50 (OVCAR-5): 19.5 µM (inactive)
- GI50 (ACHN): 15 µM (inactive)
- GI50 (U-251): 15.4 µM (inactive)
- GI50 (A549): 17.1 µM (inactive)
- GI50 (MOLT-4): 10.8 µM (inactive)
- GI50 (MDA-MB-435): 16.6 µM (inactive)
- GI50 (KM12): 13.7 µM (inactive)
- GI50 (K562): 15.8 µM (inactive)
- GI50 (NCI-H226): 25.3 µM (inactive)
- GI50 (TK-10): 16 µM (inactive)
- GI50 (NCI-H460): 15.6 µM (inactive)
- GI50 (NCI-H23): 17.7 µM (inactive)
- GI50 (OVCAR-4): 11.7 µM (inactive)
- GI50 (HOP-62): 16.5 µM (inactive)
- GI50 (OVCAR-3): 12.2 µM (inactive)
- GI50 (SF-295): 17.3 µM (inactive)
- GI50 (DU-145): 13.6 µM (inactive)
- GI50 (UACC-257): 15.6 µM (inactive)
- GI50 (A498): 12.7 µM (inactive)

SMILES: C=C1C(C2(C)C=CC(=O)OC3(C)COC(=O)CC32)C(OC=O)C(OC(=O)C(O)C(C)CC)C2(C)C(c3ccoc3)CC(OC(C)=O)C12O (stereo not drawn)
- GI50 (OVCAR-8): > 100 µM (inactive)
- GI50 (PC-3): 39.2 µM (inactive)
- GI50 (SK-MEL-28): > 100 µM (inactive)
- GI50 (HL-60): 2.69 µM (inactive)
- GI50 (SF-268): > 100 µM (inactive)
- GI50 (HCC 2998): 23.6 µM (inactive)
- GI50 (SR): 38.9 µM (inactive)
- GI50 (RXF 393): > 100 µM (inactive)
- GI50 (Hs-578T): > 100 µM (inactive)
- GI50 (LOX IMVI): 25.3 µM (inactive)
- GI50 (HCT-116): 49 µM (inactive)
- GI50 (M14): 38.8 µM (inactive)
- GI50 (SF-539): > 100 µM (inactive)
- GI50 (CCRF-CEM): 35 µM (inactive)
- GI50 (SK-MEL-5): 35 µM (inactive)
- GI50 (NCI/ADR-RES): > 100 µM (inactive)
- GI50 (RPMI-8226): > 100 µM (inactive)
- GI50 (SN12C): > 100 µM (inactive)
- GI50 (T47D): > 100 µM (inactive)
- GI50 (SK-OV-3): > 100 µM (inactive)
- GI50 (MCF7): > 100 µM (inactive)
- GI50 (SNB-75): 50.5 µM (inactive)
- GI50 (SNB-19): > 100 µM (inactive)
- GI50 (EKVX): > 100 µM (inactive)
- GI50 (CAKI-1): > 100 µM (inactive)
- GI50 (HOP-92): > 100 µM (inactive)
- GI50 (MDA-N): 37.6 µM (inactive)
- GI50 (NCI-H522): > 100 µM (inactive)
- GI50 (HT-29): 32.8 µM (inactive)
- GI50 (MDA-MB-231): > 100 µM (inactive)
- GI50 (BT-549): 54.6 µM (inactive)
- GI50 (UACC-62): 35.6 µM (inactive)
- GI50 (SK-MEL-2): 64.3 µM (inactive)
- GI50 (786-0): > 100 µM (inactive)
- GI50 (HCT-15): 84.3 µM
- GI50 (UO-31): 67.3 µM (inactive)
- GI50 (SW-620): > 100 µM (inactive)
- GI50 (COLO 205): 81.8 µM (inactive)
- GI50 (OVCAR-5): > 100 µM (inactive)
- GI50 (ACHN): 75.9 µM (inactive)
- GI50 (U-251): > 100 µM (inactive)
- GI50 (A549): > 100 µM (inactive)
- GI50 (MOLT-4): > 100 µM (inactive)
- GI50 (MDA-MB-435): 40 µM (inactive)
- GI50 (KM12): 34 µM (inactive)
- GI50 (K562): > 100 µM (inactive)
- GI50 (IGROV-1): 93.5 µM (inactive)
- GI50 (NCI-H226): > 100 µM (inactive)
- GI50 (TK-10): > 100 µM (inactive)
- GI50 (NCI-H460): 42.1 µM (inactive)
- GI50 (NCI-H23): > 100 µM (inactive)
- GI50 (HOP-62): > 100 µM (inactive)
- GI50 (OVCAR-3): > 100 µM (inactive)
- GI50 (SF-295): 84.1 µM (inactive)
- GI50 (DU-145): > 100 µM (inactive)
- GI50 (UACC-257): > 100 µM (inactive)
- GI50 (A498): > 100 µM (inactive)
